The source of these data is US6596772B1, “Phosphate mimics and methods of treatment using phosphatase inhibitors” (Sugen, Inc., priority 1999, dated 2003).

Like-named read-outs stand apart in the source and are kept apart here.

Holding throughout (test): PTP IC50 assay, pNPP or FDP as substrate
Format in all cases: biochemical

In one assay the target is T1, PTP MU (Homo sapiens, UniProt P28827).
T1 construct: made in house; host or cells: E. coli BL-21 (pGEX 6P-1)
Here is the method:
(§1) The following in vitro assay procedure is preferred to determine the level of activity and effect of the different compounds of the present invention on one or more of the PTPs. Similar assays can be designed along the same lines for any PTP using techniques well known in the art.
(§2) The catalytic assays described herein are performed in a 96-well format. The general procedure begins with the determination of PTP optimal pH using a three-component buffer system that minimizes ionic strength variations across a wide range of buffer pH. Next, the Michaelis-Menten constant, or Km, is determined for each specific substrate-PTP system. This Km value is subsequently used as the substrate reaction concentration for compound screening. Finally, the test PTP is exposed to varying concentrations of compound for fifteen minutes and allowed to react with substrate for ten minutes. The results are plotted as percent inhibition versus compound concentration and the IC50 interpolated from the plot.
(§3) All assays were performed using pNPP or FDP as substrate. The optimum pH was determined for each PTP used.
(§4) PTPase activity was assayed at 25° C. in a 100-μl reaction mixture containing an appropriate concentration of pNPP or FDP as substrate. The reaction was initiated by addition of the PTP and quenched after 10 min by addition of 50 μl of IN NaOH. The non-enzymatic hydrolysis of the substrate was corrected by measuring the control without the addition of the enzyme. The amount of p-nitrophenol produced was determined from the absorbance at 410 nm. To determine the kinetic parameter, Km, the initial velocities were measured at various substrate concentrations and the data were fitted to the Michaelis equation where velocity=(Vmax*[S])/(Km+[S]), and [S]=substrate reaction concentration.
(§5) The effect of the compounds on PTP was evaluated at 25° C. using pNPP or FDP as substrate. PTP was pre-incubated for fifteen minutes with various concentrations of compound. Substrate was then added at a fixed concentration (usually equal to the Km previously calculated). After 10 minutes, NaOH was added to stop the reaction. The hydrolysis of pNPP was followed at 410 nm on the Biotek Powerwave 200 microplate scanning spectrophotometer. The percent inhibition was calculated as follows: Percent Inhibition=[(control signal−compound signal)/control signal] ×100%. The IC50 was then determined by interpolation of a percent inhibition versus compound concentration plot.
(§6) Plasmids designed for bacterial GST-PTP fusion protein expression were derived by insertion of PCR-generated human PTP fragments into pGEX vectors (Pharmacia Biotech). Several of these constructs were then used to subclone phosphatases into pFastBac-1for expression in Sf-9 insect cells. Oligonucleotides used for the initial amplification of PTP genes are shown below. The cDNAs were prepared using the Gilbo BRL superscript preamplification system on RNAs purchased from Clontech.
The PTP Mu cDNA was amplified from a human lung cDNA library (Clontech) using the following oligonucleotides; 5′oligo: 5′-[…]-3′ (SEQ ID NO: 18) 3′oligo: 5′-[…]-3′ (SEQ ID NO: 19) It was subsequently ligated into the Eco RI/Xho I sites of pGEX 6P-1.

Another assay addresses T2, PTP MEG2 (Homo sapiens, UniProt P43378).
T2 construct: made in house; host or cells: E. coli BL-21 (pGEX 6P-1)
T2 sequence (P43378 262-593 limits assumed): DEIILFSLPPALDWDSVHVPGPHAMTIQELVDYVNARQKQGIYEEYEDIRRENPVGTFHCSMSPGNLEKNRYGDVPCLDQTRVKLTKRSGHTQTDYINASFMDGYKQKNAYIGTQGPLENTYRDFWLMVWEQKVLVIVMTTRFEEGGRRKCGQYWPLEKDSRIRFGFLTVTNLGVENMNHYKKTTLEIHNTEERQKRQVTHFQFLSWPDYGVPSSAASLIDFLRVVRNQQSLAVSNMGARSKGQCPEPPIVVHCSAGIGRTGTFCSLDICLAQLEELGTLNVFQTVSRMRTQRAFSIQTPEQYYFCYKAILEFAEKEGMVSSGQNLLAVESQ
Here is the method:
as §1, §2, §3, §4, §5, §6
The PTP MEG2 cDNA was amplified from human placenta single strand cDNA (Clontech RNA) using the following oligonucleotides: 5′oligo: 5′-[…]-3′ (SEQ ID NO: 8) 3′oligo: 5′-[…]-3′ (SEQ ID NO: 9) and subsequently ligated into pGex 6P-1 Eco RI/Xho I sites.

The target in the next assay is T3, PTP EPSILON (Homo sapiens, UniProt P23469).
T3 construct: made in house; host or cells: Sf-9 insect cells (pFastBac-G2T); a pGEX 6P-1 construct also existed
T3 sequence (P23469 80-393 limits assumed): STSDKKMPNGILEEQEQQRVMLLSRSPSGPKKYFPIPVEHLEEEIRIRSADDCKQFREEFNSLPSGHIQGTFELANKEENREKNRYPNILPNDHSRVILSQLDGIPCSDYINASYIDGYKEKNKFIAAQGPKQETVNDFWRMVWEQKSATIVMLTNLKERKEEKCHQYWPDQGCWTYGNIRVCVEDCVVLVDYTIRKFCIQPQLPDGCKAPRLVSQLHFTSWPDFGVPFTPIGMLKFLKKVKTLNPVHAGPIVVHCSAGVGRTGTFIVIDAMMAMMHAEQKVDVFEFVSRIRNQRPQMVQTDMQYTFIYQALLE
Here is the method:
as §1, §2, §3, §4, §5, §6
The PTPepsilon cDNA was amplified from human placenta single-strand cDNA (Clontech RNA) using the following oligonucleotides: 5′oligo: 5′-[…]-3′ (SEQ ID NO: 6) 3′oligo: 5′-[…]-3′ (SEQ ID NO: 7) After cloning this PCR product into the Bam HI/Xho I sites of pGEX 6P-1, this phosphatase was subcloned using the same restriction sites in pFastBac-G2T.

The next assay addresses T4, PTP BETA (Homo sapiens, UniProt P23467).
T4 construct: The catalytic domain was amplified using the following oligonucleotides; made in house; host or cells: E. coli BL-21 (pGEX 6P-1)
Here is the method:
as §1, §2, §3, §4, §5, §6
The PTP Beta cDNA used has been described earlier (Levy et al., 1993, J. Biol. Chem, 268:10573-10581). The catalytic domain was amplified using the following oligonucleotides: 5′oligo: 5′-[…]-3′ (SEQ ID NO: 16) 3′oligo: 5′-[…]-3′ (SEQ ID NO: 17) and subsequently cloned into the Eco RI/Xho I sites of pGEX 6P-1.

The mark [1] stands for this setting: pNPP or FDP as substrate, 25° C., read-out: PTP IC50 Mu.
[2] abbreviates: pNPP or FDP as substrate, 25° C., read-out: PTP IC50 MEG2.
The mark [3] stands for this setting: pNPP or FDP as substrate, 25° C., read-out: PTP IC50 Epilson.
Setting [4] is: pNPP or FDP as substrate, 25° C., read-out: PTP IC50 Beta.

T4 sequence (P23467 1653-1997): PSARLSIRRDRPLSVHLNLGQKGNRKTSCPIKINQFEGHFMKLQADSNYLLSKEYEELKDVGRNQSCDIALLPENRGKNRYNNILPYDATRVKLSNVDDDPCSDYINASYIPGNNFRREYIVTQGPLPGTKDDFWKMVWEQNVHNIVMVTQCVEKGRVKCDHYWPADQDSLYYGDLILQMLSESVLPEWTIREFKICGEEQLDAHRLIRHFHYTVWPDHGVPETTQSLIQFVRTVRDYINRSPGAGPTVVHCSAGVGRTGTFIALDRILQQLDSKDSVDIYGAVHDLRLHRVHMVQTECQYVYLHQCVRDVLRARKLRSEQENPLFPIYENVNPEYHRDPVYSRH
T1 sequence (P28827 831-1186 limits assumed): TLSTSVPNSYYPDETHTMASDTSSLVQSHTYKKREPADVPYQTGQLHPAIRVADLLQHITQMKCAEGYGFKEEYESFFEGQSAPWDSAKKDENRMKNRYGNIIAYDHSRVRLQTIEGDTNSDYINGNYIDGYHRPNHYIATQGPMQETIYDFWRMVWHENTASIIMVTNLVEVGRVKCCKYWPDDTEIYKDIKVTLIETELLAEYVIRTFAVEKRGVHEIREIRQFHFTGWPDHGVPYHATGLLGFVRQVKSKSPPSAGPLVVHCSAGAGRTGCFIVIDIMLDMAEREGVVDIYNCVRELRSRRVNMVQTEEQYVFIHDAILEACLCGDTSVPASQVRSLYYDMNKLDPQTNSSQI

Regarding `COC(=O)c1ccc(OCCOc2ccc(S(=O)(=O)C(F)(F)F)cc2[N+](=O)[O-])cc1` [Example 14, 4-[2-(2-nitro-4-trifluoromethanesulfonyl-phenoxy)-ethoxy]-benzoic acid methyl ester], the IC50 is above 100 µM at PTP MU (setting [1]), above 100 µM on PTP MEG2 (setting [2]), above 100 µM on PTP EPSILON (setting [3]) and 13.4 µM on PTP BETA (setting [4]).
Consider `CC(C)(c1ccc(NS(=O)(=O)C(F)(F)F)cc1)c1ccc(C(C)(C)c2ccc(NS(=O)(=O)C(F)(F)F)cc2)cc1` [Example 76], for which the IC50 stood at 6.7 µM on PTP MU (setting [1]), 12.9 µM on PTP MEG2 (setting [2]), 8.4 µM at PTP EPSILON (setting [3]) and 6.4 µM on PTP BETA (setting [4]).
On the same counts, the results for `O=C(O)c1ccc(Oc2cccc(Oc3ccc(S(=O)(=O)C(F)(F)F)cc3[N+](=O)[O-])c2)cc1` [Example 15, 4-[3-(2-Nitro-4-trifluoromethanesulfonyl-phenoxy)-phenoxy]-benzoic acid] are 15.5 µM, 21.1 µM, 10 µM and 10.3 µM.
The matching figures for `COC(=O)c1cc(Oc2ccc(S(=O)(=O)C(F)(F)F)cc2)cc(Oc2ccc(S(=O)(=O)C(F)(F)F)cc2)c1` [Example 9, 3,5-Bis-(4-trifluoromethanesulfonyl-phenoxy)-benzoic acid methyl ester]: above 100 µM, above 100 µM, above 100 µM and 45.6 µM.
The matching figures for `COC(=O)Cc1cc(Oc2ccc(S(=O)(=O)C(F)(F)F)cc2[N+](=O)[O-])cc(Oc2ccc(S(=O)(=O)C(F)(F)F)cc2[N+](=O)[O-])c1` [Example 10, [3,5-Bis-(2-nitro-4-trifluoromethanesulfonyl-phenoxy)-phenyl]-acetic acid methyl ester]: above 100 µM, above 100 µM, 60.8 µM and 20.5 µM.
`COC(=O)c1cc(Oc2ccc(S(=O)(=O)C(F)(F)F)cc2[N+](=O)[O-])n(-c2cc(C(F)(F)F)cc(C(F)(F)F)c2)n1` [Example 16, 1-(3,5-Bis-trifluoromethyl-phenyl)-5-(2-nitro-4-trifluoromethanesulfonyl-phenoxy)-1H-pyrazole-3-carboxylic acid methyl ester]: the IC50 at PTP MU (setting [1]) is above 100 µM; on PTP MEG2 (setting [2]) it was 79.5 µM; at PTP EPSILON (setting [3]) it was 64.7 µM; at PTP BETA (setting [4]), 9.6 µM.
On the same counts, the results for `O=S(=O)(Nc1ccc(-c2nnc(-c3ccc(NS(=O)(=O)C(F)(F)F)cc3)o2)cc1)C(F)(F)F` [Example 75, 2,5-Bis(4-trifluoromethylsulfonamidophenyl)-(1,3,4)oxadiazole] are 32.4 µM, 12.8 µM, 11.5 µM and 2.9 µM.
On the same counts, the results for “1-(4-Aminophenoxy)-4-trifluoromethylsulfonamidophenoxy benzene [Example 72]” are above 100 µM, above 100 µM, 48.3 µM and 22.7 µM.
On the same counts, the results for `COC(=O)c1cc(Oc2ccc(S(=O)(=O)C(F)(F)F)cc2[N+](=O)[O-])cc(Oc2ccc(S(=O)(=O)C(F)(F)F)cc2[N+](=O)[O-])c1` [Example 11, 3,5-Bis-(2-nitro-4-trifluoromethanesulfonyl-phenoxy)-benzoic acid methyl ester] are above 100 µM, above 100 µM, 38.7 µM and 11.2 µM.
For the compound `O=S(=O)(Nc1ccc(Oc2ccc(NS(=O)(=O)C(F)(F)F)cc2)cc1)C(F)(F)F` [Example 73, Bis(4-trifluoromethylsulfonamidophenyl) ether], the IC50 is 76.1 µM on PTP MU (setting [1]), above 100 µM at PTP MEG2 (setting [2]), 23.1 µM at PTP EPSILON (setting [3]) and above 100 µM at PTP BETA (setting [4]).
On to `COC(=O)c1c(Oc2ccc(S(=O)(=O)C(F)(F)F)cc2[N+](=O)[O-])cc(C)cc1Oc1ccc(S(=O)(=O)C(F)(F)F)cc1[N+](=O)[O-]` [Example 13, 4-Methyl-2,6-bis-(2-nitro-4-trifluoromethanesulfonyl-phenoxy)-benzoic acid methyl ester], for which the IC50 at PTP MU (setting [1]) is 76 µM; on PTP MEG2 (setting [2]) it was above 100 µM; on PTP EPSILON (setting [3]) it was 80.4 µM; on PTP BETA (setting [4]), 15.1 µM.
As for `CCOC(=O)COc1ccc(S(=O)(=O)c2ccc(Oc3ccc(S(=O)(=O)C(F)(F)F)cc3[N+](=O)[O-])cc2)cc1` [Example 17, {4-[4-(2-Nitro-4-trifluoromethanesulfonyl-phenoxy)-benzenesulfonyl]-phenoxy}-acetic acid ethyl ester], the IC50 is above 100 µM on PTP MU (setting [1]), 88.5 µM at PTP MEG2 (setting [2]), above 100 µM at PTP EPSILON (setting [3]) and 26 µM at PTP BETA (setting [4]).
For `O=[N+]([O-])c1cc(S(=O)(=O)C(F)(F)F)ccc1OC1CCC(Oc2ccc(S(=O)(=O)C(F)(F)F)cc2[N+](=O)[O-])C1` (mixture of isomers) [Example 12, 1,3-Bis-(2-nitro-4-trifluoromethanesulfonyl-phenoxy)-cyclopentane], the IC50 was above 100 µM on PTP MU (setting [1]), above 100 µM at PTP MEG2 (setting [2]), above 100 µM on PTP EPSILON (setting [3]) and 17.9 µM on PTP BETA (setting [4]).
For `O=S(=O)(Nc1ccc(Oc2cccc(Oc3ccc(NS(=O)(=O)C(F)(F)F)cc3)c2)cc1)C(F)(F)F` [Example 74, 1,3-Bis(4-trifluoromethylsulfonamidophenoxy)benzene], the IC50 amounted to 3.9 µM on PTP MU (setting [1]), 58.7 µM on PTP MEG2 (setting [2]), 1.8 µM at PTP EPSILON (setting [3]) and 26.6 µM at PTP BETA (setting [4]).
On to `Nc1ccc(Oc2ccc(Oc3ccc(N)cc3)cc2)cc1` [NH2], for which the IC50 at PTP MU (comparison of R groups, read-out: IC50 Mu) was above 100 µM; on PTP MEG2 (comparison of R groups, read-out: IC50 MEG2) it was above 100 µM; at PTP EPSILON (comparison of R groups, read-out: IC50 Epsilon), above 100 µM; at PTP BETA (comparison of R groups, read-out: IC50 Beta), above 100 µM.
On to `O=[N+]([O-])c1cc(S(=O)(=O)C(F)(F)F)ccc1SSc1ccc(S(=O)(=O)C(F)(F)F)cc1[N+](=O)[O-]` [Example 8, Bis-(2-nitro-4-trifluoromethylsulfonylphenyl) disulfide], for which the IC50 on PTP MU (setting [1]) was above 100 µM; on PTP MEG2 (setting [2]), above 100 µM; at PTP EPSILON (setting [3]), 53.7 µM; on PTP BETA (setting [4]), 26.5 µM.
